Reference: patent US20030166483A1, “Use of 3-iodine-2-propinyl-carbamates as antimicrobial active agent” (priority 2003, published 2003)

Key:
Type in all cases: cell-based
[1] = system: Trichophyton mentagrophytes, ATCC 9533; experiment: Fungistatic activity by the inhibition test; settings: 7 days at 25° C.; for inhibiting effect evaluation: impregnated cotton specimens
Description: (§1) Candida albicans, ATCC 10231 (precultured on CaSo agar, 4 d/25° C.), Aspergillus niger, ATCC 6275 (precultured on malt agar, 8d/25° C.), Trichophyton mentagrophytes, ATCC 9533 (precultured on malt agar, 8d/25° C.), Cladosporium cladosporioides, DSM 62121 (precultured on malt agar, 8d/25° C.), Epicoccum nigrum, self-isolate (precultured on malt agar, 8d/25°).
(§2) The inocula were obtained by floating off the preculture plates with 0.05% Tween®80 and had the following germ contents:
(§3) 1×1 cm prewashed and autoclaved test specimens of standard cotton cloth to DIN 53919 (WfK-Testgewebe GmbH, Adlerstr. 42, Krefeld) were placed in the test solutions for 15 minutes, removed under sterile conditions and dried for 14 h at room temperature. 0.1 ml inoculation suspensions of the test fungi mentioned above were inoculated into malt agar in a petri dish and, after the agar had solidified, 0.1 ml was spread over the agar surface with a spatula.
(§4) The test specimens impregnated with the test solutions were then placed on the agar surface under sterile conditions and the dishes were incubated for 7 days at 25° C. The inhibiting effect was then evaluated to the following scheme: […]

[2] = system: Epicoccum nigrum, self-isolate; experiment: Fungistatic activity by the inhibition test; settings: 7 days at 25° C.; for inhibiting effect evaluation: impregnated cotton specimens
Description: as §1, §2, §3, §4

[3] = system: Candida albicans, ATCC 10231; experiment: Fungistatic activity by the inhibition test; settings: 7 days at 25° C.; for inhibiting effect evaluation: impregnated cotton specimens
Description: as §1, §2, §3, §4

[4] = system: Cladosporium cladosporioides, DSM 62121; experiment: Fungistatic activity by the inhibition test; settings: 7 days at 25° C.; for inhibiting effect evaluation: impregnated cotton specimens
Description: as §1, §2, §3, §4

[5] = system: Aspergillus niger, ATCC 6275; experiment: Fungistatic activity by the inhibition test; settings: 7 days at 25° C.; for inhibiting effect evaluation: impregnated cotton specimens
Description: as §1, §2, §3, §4

[6] = system: dermatophytes, fungi producing mildew spots and material-damaging fungi; experiment: Fungistatic activity, overall result; settings: by comparison with the reference preparation
Description: as §3, §4

[7] = system: Trichophyton mentagrophytes, ATCC 9533; experiment: Fungicidal activity by the DGHM germ carrier test; parameters: key: +: living culture; −: dead culture
Description: as §1, §2
(§5) The test was carried out under the Richtlinien für die Prüfung und Bewertung chemischer Desinfektionsverfahren (Guidelines for the Testing and Evaluation of Chemical Disinfection Processes) of the Deutsche Gesellschaft für Hygiene und Mikrobiologie (DGHM), Gustav Fischer Verlag, 1981:
(§6) 16 prewashed and autoclaved test specimens were placed in the above-mentioned inoculation suspensions of the test fungi and left therein for 15 minutes during which they were turned over several times. The test specimens thus contaminated were then transferred to empty Petri dishes where 10 ml of the test solutions were poured over them. After contact times of 60 and 120 minutes at 20° C., two of the test specimens were removed, briefly transferred to 10 ml of DGHM inactivator solution and then inoculated onto CaSo plates (Candida) or malt agar plates (other test fungi). Incubation lasted 7 days at 25° C. and was followed by qualitative evaluation, i.e. growth yes (+) or no (−).

[8] = system: Epicoccum nigrum, self-isolate; experiment: Fungicidal activity by the DGHM germ carrier test; parameters: key: +: living culture; −: dead culture
Description: as §1, §2, §5, §6

[9] = system: Candida albicans, ATCC 10231; experiment: Fungicidal activity by the DGHM germ carrier test; parameters: key: +: living culture; −: dead culture
Description: as §1, §2, §5, §6

[10] = system: Cladosporium cladosporioides, DSM 62121; experiment: Fungicidal activity by the DGHM germ carrier test; parameters: key: +: living culture; −: dead culture
Description: as §1, §2, §5, §6

[11] = system: Aspergillus niger, ATCC 6275; experiment: Fungicidal activity by the DGHM germ carrier test; parameters: key: +: living culture; −: dead culture
Description: as §1, §2, §5, §6

[12] = 100 ppm, contact time 60 mins. at 20° C.
[13] = 100 ppm, contact time 120 mins. at 20° C.
[14] = 500 ppm, contact time 60 mins. at 20° C.
[15] = 500 ppm, contact time 120 mins. at 20° C.
[16] = 750 ppm, contact time 60 mins. at 20° C.
[17] = 750 ppm, contact time 120 mins. at 20° C.

Question: `CCCCNC(=O)OCC#CI` [IPBC, 3-Iodo-2-propinyl butyl carbamate] was tested. Which inhibition zone ([1]; 100 ppm test solution) did it give?
Answer: The inhibition zone was 3-6 mm.

Question: What about the inhibiting effect evaluation ([1]; 100 ppm test solution) of the same molecule?
Answer: The inhibiting effect evaluation was 0/0.

Question: And the inhibition zone ([1]; 500 ppm test solution)?
Answer: The inhibition zone was 12-15 mm.

Question: And the inhibiting effect evaluation ([1]; 500 ppm test solution)?
Answer: The inhibiting effect evaluation was 0/0.

Question: What about the inhibition zone ([1]; 750 ppm test solution) of the same molecule?
Answer: Its inhibition zone is 15-18 mm.

Question: And the inhibiting effect evaluation ([1]; 750 ppm test solution)?
Answer: The inhibiting effect evaluation was 0/0.

Question: And the inhibition zone ([2]; 100 ppm test solution)?
Answer: The inhibition zone was 5-9 mm.

Question: And the inhibiting effect evaluation ([2]; 100 ppm test solution)?
Answer: The inhibiting effect evaluation was 0/0.

Question: And the inhibition zone ([2]; 500 ppm test solution)?
Answer: Its inhibition zone is 11-14 mm.

Question: And the inhibiting effect evaluation ([2]; 500 ppm test solution)?
Answer: The inhibiting effect evaluation was 0/0.

Question: And the inhibition zone ([2]; 750 ppm test solution)?
Answer: Its inhibition zone is 12-15 mm.

Question: What about the inhibiting effect evaluation ([2]; 750 ppm test solution) of the same molecule?
Answer: The inhibiting effect evaluation was 0/0.

Question: What about the inhibiting effect evaluation ([3]; 100 ppm test solution) of the same molecule?
Answer: The inhibiting effect evaluation was 1/1.

Question: What about the inhibition zone ([3]; 500 ppm test solution) of the same molecule?
Answer: The inhibition zone was 3-5 mm.

Question: What about the inhibiting effect evaluation ([3]; 500 ppm test solution) of the same molecule?
Answer: The inhibiting effect evaluation was 0/0.

Question: And the inhibition zone ([3]; 750 ppm test solution)?
Answer: Its inhibition zone is 3-5 mm.

Question: What about the inhibiting effect evaluation ([3]; 750 ppm test solution) of the same molecule?
Answer: The inhibiting effect evaluation was 0/0.

Question: And the inhibition zone ([4]; 100 ppm test solution)?
Answer: The inhibition zone was 1 mm.

Question: And the inhibiting effect evaluation ([4]; 100 ppm test solution)?
Answer: The inhibiting effect evaluation was 0/0.

Question: What about the inhibition zone ([4]; 500 ppm test solution) of the same molecule?
Answer: Its inhibition zone is 5-7 mm.

Question: What about the inhibiting effect evaluation ([4]; 500 ppm test solution) of the same molecule?
Answer: The inhibiting effect evaluation was 0/0.

Question: What about the inhibition zone ([4]; 750 ppm test solution) of the same molecule?
Answer: The inhibition zone was 5-7 mm.

Question: And the inhibiting effect evaluation ([4]; 750 ppm test solution)?
Answer: Its inhibiting effect evaluation is 0/0.

Question: And the inhibition zone ([5]; 100 ppm test solution)?
Answer: Its inhibition zone is 3-5 mm.

Question: What about the inhibiting effect evaluation ([5]; 100 ppm test solution) of the same molecule?
Answer: Its inhibiting effect evaluation is 0/0.

Question: What about the inhibition zone ([5]; 500 ppm test solution) of the same molecule?
Answer: Its inhibition zone is 9-11 mm.

Question: What about the inhibiting effect evaluation ([5]; 500 ppm test solution) of the same molecule?
Answer: Its inhibiting effect evaluation is 0/0.

Question: And the inhibition zone ([5]; 750 ppm test solution)?
Answer: Its inhibition zone is 10-12 mm.

Question: What about the inhibiting effect evaluation ([5]; 750 ppm test solution) of the same molecule?
Answer: Its inhibiting effect evaluation is 0/0.

Question: And the “fungistatic activity (overall)” value [6]?
Answer: The value was “very good fungistatic activity”.

Question: What about the “growth after contact (fungicidal activity)” value (from here on “growth after contact”) [7, 12] of the same molecule?
Answer: The value was 60 mins. +.

Question: What about the “growth after contact” value [7, 13] of the same molecule?
Answer: Its value is 120 mins. +.

Question: What about the “growth after contact” value [7, 14] of the same molecule?
Answer: Its value is 60 mins. −.

Question: And the “growth after contact” value [7, 15]?
Answer: Its value is 120 mins. −.

Question: What about the “growth after contact” value [7, 16] of the same molecule?
Answer: Its value is 60 mins. −.

Question: What about the “growth after contact” value [7, 17] of the same molecule?
Answer: The value was 120 mins. −.

Question: What about the “growth after contact” value [8, 12] of the same molecule?
Answer: The value was 60 mins. +.

Question: What about the “growth after contact” value [8, 13] of the same molecule?
Answer: The value was 120 mins. +.

Question: What about the “growth after contact” value [8, 14] of the same molecule?
Answer: The value was 60 mins. −.

Question: And the “growth after contact” value [8, 15]?
Answer: The value was 120 mins. −.

Question: And the “growth after contact” value [8, 16]?
Answer: Its value is 60 mins. −.

Question: What about the “growth after contact” value [8, 17] of the same molecule?
Answer: Its value is 120 mins. −.

Question: And the “growth after contact” value [9, 12]?
Answer: Its value is 60 mins. +.

Question: What about the “growth after contact” value [9, 13] of the same molecule?
Answer: Its value is 120 mins. +.

Question: And the “growth after contact” value [9, 14]?
Answer: Its value is 60 mins. +.

Question: And the “growth after contact” value [9, 15]?
Answer: The value was 120 mins. +.

Question: What about the “growth after contact” value [9, 16] of the same molecule?
Answer: Its value is 60 mins. +.

Question: What about the “growth after contact” value [9, 17] of the same molecule?
Answer: Its value is 120 mins. +.

Question: What about the “growth after contact” value [10, 12] of the same molecule?
Answer: Its value is 60 mins. +.

Question: What about the “growth after contact” value [10, 13] of the same molecule?
Answer: The value was 120 mins. +.

Question: What about the “growth after contact” value [10, 14] of the same molecule?
Answer: The value was 60 mins. −.

Question: And the “growth after contact” value [10, 15]?
Answer: Its value is 120 mins. −.

Question: What about the “growth after contact” value [10, 16] of the same molecule?
Answer: Its value is 60 mins. −.

Question: And the “growth after contact” value [10, 17]?
Answer: The value was 120 mins. −.

Question: What about the “growth after contact” value [11, 12] of the same molecule?
Answer: The value was 60 mins. +.

Question: And the “growth after contact” value [11, 13]?
Answer: The value was 120 mins. +.

Question: What about the “growth after contact” value [11, 14] of the same molecule?
Answer: Its value is 60 mins. +.

Question: And the “growth after contact” value [11, 15]?
Answer: The value was 120 mins. +.

Question: What about the “growth after contact” value [11, 16] of the same molecule?
Answer: Its value is 60 mins. +.

Question: What about the “growth after contact” value [11, 17] of the same molecule?
Answer: The value was 120 mins. +.
